Assay results taken from article PMC5412445, “ZeGlobalTox: An Innovative Approach to Address Organ Drug Toxicity Using Zebrafish” (International Journal of Molecular Sciences, 2017).
Read-outs that look alike come from different tables or passages of the source.

Assays:
humans = conditions: cited from earlier work
[1] = system: wild type zebrafish embryos; test: in vivo; assay type: in vivo; conditions: embryos incubated 3 to 96 hpf; 5 logarithmic concentrations 0.1 µM to 1 mM; 1% DMSO
From the text: (§1) Several issues were considered when planning the experimental protocol. The main concern was that drug-induced mortality and/or developmental toxicity (teratogenicity) could mask possible organ-toxicities appearing later in development. […] This preliminary assay allowed for the identification of non-mortal/non-teratogenic concentrations—no observed effect concentration (NOEC)—to use in the following assays. The hypothesis is that NOEC could affect organ physiology (organ toxicity), while uncoupled from putative developmental toxicity side-effects affecting organ development or function. Another consideration was to start drug incubations at 96 hours post fertilization (hpf), when the analysed organs are close to or already developed (Figure 1B). The overall aim is to understand the drug impact on organ physiology and function rather than early embryogenesis. The third consideration was to organize the sequential organ evaluation during the experimental and drug incubation time.
(§2) 1% DMSO, which is the constant solvent concentration in all conditions, was used as the negative control.
(§3) Thus, 20 wild type (wt) zebrafish embryos per condition were incubated with tested compounds from 3 to 96 hpf. The test was performed in 5 logarithmic concentrations per drug (from 0.1 µM to 1 mM). Each larva was analysed for mortality, body deformity, edema, tail detachment, pigmentation, heart activity, heart edema, and motor activity. […] DMSO 1% was used as the negative control in all experiments.

in vivo = assay type: in vivo; conditions: zebrafish, in vivo; mortality; embryos incubated 3 to 96 hpf; 5 logarithmic concentrations 0.1 µM to 1 mM; 1% DMSO
From the text: as §1, §2, §3

zebrafish larvae heart = test: ZeGlobalTox cardiotoxicity evaluation (heart video, ZeCardio software); assay type: in vivo, zebrafish (Danio rerio); conditions: 100 hpf, 4 h after drug incubation at NOEC (haloperidol 10 µM)
Procedure: Four cardiac parameters were evaluated to assess whether a compound was cardiotoxic: heart rate (beats per minute, BPM), QTc prolongation, ejection fraction (EJF), and cardiac arrest. […] 1% DMSO was used as the negative control.
Cardiotoxicity evaluation was performed from 96 hpf, when the zebrafish heartbeat is already stabilised, so the analysis might not be altered by unstable beating. Zebrafish hearts were video-recorded at 4 h after drug incubation (100 hpf) and analysed using the ZeCardio® β software (Figure 3A).
After 4 h of drug incubation (100 hpf), zebrafish larvae were anesthetized by immersion in […] tricaine methanesulfonate (A4050, Sigma-Aldrich, Saint Louis, MO, USA)/E3 solution. […] The 1% DMSO treated embryos were used as negative cardiotoxic controls. Embryos were positioned in an agarose based mold to allow their appropriate orientation under the fluorescence stereo microscope (Olympus MVX10). Individual fluorescent hearts were recorded during 60 s each (Figure 6A). Videos were acquired with a high-speed recording camera (Hamamatsu C11440 ORCA-flash 2.8) and analysed with the ZeCardio® β software to extract different cardiac parameters—heart rate, cardiac arrest, QTc prolongation, and Ejection Fraction (EJF) (Figure 6B).
ZeCardio® β software, developed by ZeClinics and currently in β status, provides a graphical user interface (GUI) that facilitates the semi-automatic analysis of living heart videos. Interactive analysis of the different parameters functions as follows: The user draws a line along the heart axis, from ventricle to atrium, to initiate the calculation. […] All lines can be subjected to modification of their angles and lengths.
Heart beat frequency for each chamber is detected and frequencies are presented in the GUI as a mean. A plot distribution is used for assessing beat stability over time (Figure 6F). In the same fashion, chamber specific cardiac arrest is measured as the longest beating pause (Figure 6H). No beating chambers and/or incorrect bpm can be manually flagged when detected.
For calculation of the QTc interval (linearly corrected QT interval), the Framingham formula (QTc = QT + 0.154 (1 − RR)) was adjusted for zebrafish as QTc = QT + 0.154 (2.66 − RR). RR = 6.6 ms/measured bpm is applied (Figure 6G). Finally, the Ejection Fraction, calculated as the maximal dilatation (the diastolic diameter, DD) versus the maximal contraction (systolic diameter, SD) is measured in % as EF% = (DD − SD)/DD*100 (Figure 6G). Computed values for the described parameters were exported in .csv format (Figure 6H).

zebrafish larvae liver = test: ZeGlobalTox hepatotoxicity: Oil Red O staining (steatosis and yolk lipid accumulation); conditions: 132 hpf; for Percentage of larvae presenting steatosis: 36 h drug incubation at NOEC (EtOH 2%, MPTP 100 µM), DMSO 24.44%
Procedure: In order to assess drugs producing steatosis and yolk lipid accumulation, and subsequent to the RFP filtered images being acquired, zebrafish larvae were stained with Oil Red O. Larvae and were sorted into steatosis positive or negative, yolk lipid accumulation, or both (see materials and methods).
For the ZeGlobalTox assay, fertilized Tg(cmlc2:GFP; fabp10:RFP; ela31:EGFP) zebrafish embryos were collected in E3 medium (5 mM NaCl, 0.17 mM KCl, 0.33 mM CaCl2, 0.33 mM, MgSO4) in Petri dishes. At 3, 24, and 48 hpf, dishes were observed and all not fertilized, abnormal, or coagulated eggs were discarded. At 96 hpf, 20 larvae per condition were incubated with the NOECs from the different drugs and allowed to develop until 132 hpf at 28.5 °C.
After 36 h of drug incubation (132 hpf), embryos are fixed in 4% paraformaldehyde (158127-500G, Sigma-Aldrich, Saint Louis, MO, USA) for 2–4 h at room temperature (RT) and then are 3× washed with PBS.
In order to detect the presence of steatosis and yolk lipid retention, zebrafish larvae were stained with Oil Red O (O0625-25G, Sigma-Aldrich, Saint Louis, MO, USA) as described in [77]. Briefly, the skin pigment from fixed larvae is removed by incubating with bleaching solution (for 10 mL: 6 mL H2O, 0.25 mL 20× SSC, 0.5 mL formamide, 3.3 mL H2O2) during 20 min at RT. Then, the larvae are 5× washed with PBS. Bleached embryos are first submerged in 85% Propylene glycol (PG) (134368-1L, Sigma-Aldrich, Saint Louis, MO, USA) for 10 min and then in 100% PG for another 10 min before staining them with Oil Red O 0.5% in 100% PG (overnight, at RT and with gentle rocking). Oil Red O stained embryos are washed in 100% PG for 30 min, 50 min in 85% PG, and 40 min in 85% PG with an equal volume of PBS. Finally, embryos are washed 1× with PBS before adding 80% glycerol (G7757-500ML, Sigma-Aldrich, Saint Louis, MO, USA). Bright field images are taken to detect both steatosis and yolk lipid accumulation. […] Yolk lipid retention is considered positive when a red strong signal is observed in the yolk area (Figure 5F).
DMSO 1% treated larvae were used as the negative control group.

zebrafish larvae = test: ZeGlobalTox neurotoxicity evaluation (locomotion, light/dark trial); assay type: in vivo, zebrafish (Danio rerio); conditions: 120 hpf, drug from 96 hpf at NOEC (MPTP 100 µM, paracetamol 2600 µM)
Procedure: By 5 dpf, zebrafish larvae perform spontaneous swimming and their visual system is fully developed. Therefore, behavioural experiments were performed from this time point (Figure 4A). Deviations in total distance moved, in response to photo-visual stimulation, were analysed as a direct measurement of neurotoxicity. Thus, drugs increasing or decreasing total distance moved when compared to the DMSO-only group were considered neurotoxic. As the positive neurotoxic control we used MPTP, which has been identified as a neurotoxic drug in humans and zebrafish.
Immediately after heart video acquisition, larvae are washed with E3 medium to remove tricaine methanesulfonate from the solution. Fresh drug solution is added and the larvae are transferred individually in a volume of 150 µL to 96 well plates.
Neurotoxicity is analysed at 120 hpf by locomotion assessment using the EthoVision XT 11.5 software and the DanioVision device from Noldus Information Technologies, Wageningen, The Netherlands. This closed system consists of a camera placed above a chamber with circulating water and a temperature sensor set at 28 °C. The 96-well plates are placed in the chamber, which can then be illuminated with white light using the software. Larvae are then left for 20 min under these conditions and with the lights on to help their acclimation. Finally, larvae locomotion is measured during 50′ under the following light/dark conditions: 10′ darkness-10′ Light-10′ darkness-10′ Light-10′ darkness. Total distance moved (in mm) is acquired under this light/dark trial. Due to circadian rhythms, all locomotion assays were performed from 13:00 pm onwards to ensure steady activity of the zebrafish.
Neurotoxicity is assessed by comparing locomotion differences among the tested compounds (solved in DMSO) and the negative control group (DMSO 1%-only).

[2] = known toxicity in humans, ref TOXNET (HSDB), Side effects (EMBL), drugs.com, [22],[30],[31],[34],[35]
[3] = known toxicity in humans, ref TOXNET (HSDB), Side effects (EMBL), drugs.com, ema.europa, [19],[20],[21]
[4] = known toxicity in humans, ref TOXNET (HSDB), Side effects (EMBL), drugs.com, ema.europa, [24],[26],[27],[32],[33]

Row | SMILES | Neurotoxicity (toxicity in humans) (humans; [2]) | Cardiotoxicity (toxicity in humans) (humans; [3]) | Hepatotoxicity (toxicity in humans) (humans; [4]) | 96 hpf LOEC [1] [µM] | 96 hpf NOEC [1] [µM] | LC50 (in vivo) [µM] | further results
1 | CCOC(=O)Nc1ccc(NCc2ccc(F)cc2)nc1N [Flupirtine, flupirtine] | Safe | Safe | Toxic ^4 | 100.00 | 10.00 | 136 | –
2 | O=C(CCCN1CCC(O)(c2ccc(Cl)cc2)CC1)c1ccc(F)cc1 [Haloperidol] | Toxic ^1,2,3 | Toxic ^1,2,3 [19, 20, 21] | Safe | – | – | – | Heart rate (beats per minute) compared to DMSO-only (zebrafish larvae heart): decreased the heart rate; QTc interval compared to DMSO-only (zebrafish larvae heart): QTc interval prolongation
3 | CC(C)(C)NC(=O)[C@H]1CC[C@H]2[C@@H]3CC[C@H]4NC(=O)C=C[C@]4(C)[C@H]3CC[C@]12C [Finasteride, finasteride] | Safe | Safe | Safe | 100.00 | – | 31.6 | Percentage of larvae presenting steatosis (zebrafish larvae liver): 65%
4 | CN(CCOc1ccc(NS(C)(=O)=O)cc1)CCc1ccc(NS(C)(=O)=O)cc1 [Dofetilide, dofetilide] | Safe | Toxic ^1,2,3 | Safe | 100.00 | – | – | Heart rate (beats per minute) compared to DMSO-only (zebrafish larvae heart): decreased the heart rate; Longest cardiac arrest compared to DMSO-only (zebrafish larvae heart): Longer cardiac arrest
5 | CC(=O)O[C@@]12CO[C@@H]1C[C@H](O)[C@@]1(C)C(=O)[C@H](O)C3=C(C)[C@@H](OC(=O)[C@H](O)[C@@H](NC(=O)OC(C)(C)C)c4ccccc4)C[C@@](O)([C@@H](OC(=O)c4ccccc4)[C@H]21)C3(C)C [Docetaxel, docetaxel] | Toxic ^1,2,3 | Toxic ^2,3 | Toxic ^1,2,3 | 100.00 | – | – | Heart rate (beats per minute) compared to DMSO-only (zebrafish larvae heart): decreased the heart rate; Longest cardiac arrest compared to DMSO-only (zebrafish larvae heart): Longer cardiac arrest; Motility (total distance moved) compared to DMSO (zebrafish larvae): increased motility
6 | CCN(CC)c1ccc(C=O)cc1 [DEAB, 4-diethylaminobenzaldehyde] | – | – | – | 10.00 | 1.00 | 186 | –
7 | O=C(O)c1cn(C2CC2)c2cc(N3CCNCC3)c(F)cc2c1=O [Ciprofloxacin, ciprofloxacin] | – | – | – | – | – | – | Heart rate (beats per minute) compared to DMSO-only (zebrafish larvae heart): increased heart rates; Longest cardiac arrest compared to DMSO-only (zebrafish larvae heart): no differences
8 | [Cl-].[Na+] [NaCl, sodium chloride] | Safe | Safe | Safe | – | 1000.00 | – | –
9 | CCO [Ethanol] | Toxic ^1 | Toxic ^1 | Toxic [26, 27] | – | – | – | –
10 | CC(=O)O[C@H]1C[C@@]2(C)[C@@H](C[C@@H](O)[C@H]3[C@@]4(C)CC[C@@H](O)[C@@H](C)[C@@H]4CC[C@@]32C)/C1=C(\CCC=C(C)C)C(=O)O [Fusidic Acid, fusidic acid] | Safe | Safe | Toxic [32, 33] | 100.00 | – | 124 | –
11 | NC(=O)CC[C@H](N)C(=O)O [L-Glutamine, L-glutamine] | Safe | Safe | Safe | – | – | – | –
12 | OC[C@H]1OC(O)[C@H](O)[C@@H](O)[C@@H]1O (stereo partly drawn) [D-(+)-glucose] | – | – | – | – | 1000.00 | – | Cardiotoxicity (toxicity in humans) (humans; in vivo): Safe; Hepatotoxicity (toxicity in humans) (humans; in vivo): Safe; Neurotoxicity (toxicity in humans) (humans; in vivo): Safe
13 | C[C@]12CC[C@H](O)C[C@H]1CC[C@@H]1[C@@H]2C[C@@H](O)[C@]2(C)[C@@H](C3=CC(=O)OC3)CC[C@]12O [Digoxigenin, digoxigenin] | – | Toxic ^1 | – | 1000.00 | 100.00 | – | Percentage of larvae presenting steatosis (zebrafish larvae liver): 55%
14 | N[C@@H](CS)C(=O)O [L-Cysteine, L-cysteine] | – | – | – | – | 1000.00 | – | –
15 | NNC(=O)c1ccncc1 [Isoniazid, isoniazid] | Toxic ^1,2,3 | Safe | Toxic ^1,2,3 | – | 1000.00 | – | Percentage of larvae presenting steatosis (zebrafish larvae liver): 60%
16 | Cc1ccc(C(=O)Nc2ccc(S(=O)(=O)O)c3cc(S(=O)(=O)O)cc(S(=O)(=O)O)c23)cc1NC(=O)c1cccc(NC(=O)Nc2cccc(C(=O)Nc3cc(C(=O)Nc4ccc(S(=O)(=O)O)c5cc(S(=O)(=O)O)cc(S(=O)(=O)O)c45)ccc3C)c2)c1 [Suramin, suramin] | Toxic [34, 35] | Safe | Safe | 1000 | – | 197 | –
17 | C[C@](N)(Cc1ccc(O)c(O)c1)C(=O)O [Methyldopa, methyldopa] | Toxic ^1,3 | Safe | Toxic ^1,2,3 | – | 1000.00 | – | Percentage of larvae presenting yolk lipid retention (zebrafish larvae liver; 36 h drug incubation at NOEC (paracetamol 2600 µM), DMSO 22.22%): 50%
18 | COc1cc(N)c(Cl)cc1C(=O)NC1CCN(CCCOc2ccc(F)cc2)CC1OC (centres unmarked) [Cisapride, cisapride] | Safe | Toxic ^1,3 | Safe | – | – | > 1000 | Heart rate (beats per minute) compared to DMSO-only (zebrafish larvae heart): decreased the heart rate; Longest cardiac arrest compared to DMSO-only (zebrafish larvae heart): Longer cardiac arrest
